Legend:
FIXa = molecular target: T1, FIXa (Homo sapiens, UniProt P00740); settings: clinical studies; cited from earlier work
T1 construct: host or cells: circulating blood of trial subjects (endogenous protein)

[1] = Cardiopulmonary bypass on a juvenile pig; type: in vivo; settings: 3-hr period of CPB
[2] = system: clot formation in whole blood; assay: TEG of whole blood, coagulation triggered by tissue factor (Example I); type: cell-based; settings: TF; for clot formation (in words): FVIIa aptamer 0.5, FIXa aptamer 1.0, FXa aptamer 1.0 micromolar
Procedure: TEG is a waveform generated from serial measurements of the torque transmitted from a small oscillating cup to the tip of a metal pin inserted into the cup by a 360 microliter sample of blood or plasma added to the cup.
A 360 microliter blood sample has been added to the cup. For 180 minutes after the sample is added, the cup oscillates alternatively clockwise and counterclockwise through an arc of 4° 45′ at a frequency of one oscillation cycle—i. e., one clockwise rotation and one counterclockwise rotation—every 10 seconds. The lower end of the pin is immersed by the sample; the upper end is suspended from a torsion wire. The TEG analyzer records a single measurement of rotation-induced torque after each clockwise rotation and after each counterclockwise rotation of the cup. “The torque of the rotating cup is transmitted to the immersed pin only after fibrin-platelet bonding has linked the cup and [the] pin together. The strength of these fibrin-platelet bonds affects the magnitude of the pin motion, such that strong clots move the pin directly in phase with the cup motion. Thus, the magnitude of the output is directly related to the strength of the formed clot . . . . [If] the clot retracts or lyses, these bonds are broken and the transfer of cup motion is diminished. The rotation movement of the pin is converted by a mechanical-electrical transducer to an electrical signal which can be monitored by a computer” (TEG 5000 User Manual, pp 3-4, 1999-2007)). The computer converts the series of electrical signals into the TEG tracing.

[3] = aptamer/antidote pair; neonatal porcine cardiopulmonary bypass; cited from earlier work
whole blood = assay: Isolated 25-mL oxygenator circuit (Example II); settings: 2 micromolar
Procedure: FIG. 18 is a photograph of the isolated 25-mL oxygenator circuit, the principal components of which are a 5-mL venous reservoir, a custom-designed polypropylene membrane oxygenator, segments of 1.6 mm internal diameter silicone tubing that connect the oxygenator with the reservoir, and a small roller pump. The oxygenator is constructed of two 10 cm×10 cm rectangular Plexiglas® shells that surround and hold a 9.5 cm×9.5 cm×1 mm polypropylene membrane. Its priming volume is 4 mL. The pump circulates the blood continuously from the reservoir through the oxygenator and back to the reservoir.
Unpublished experiments have shown that the thrombogenicity of the isolated 25-mL oxygenator circuit resembles the thrombogenicity of a CPB circuit. […] Clot formation occurred approximately 30 minutes after circulation was started. […] In contrast, UFH 5, U/mL, as well as the combination of RNA9.3t, RNA11F7t, and thrombin aptamer both prevented clot formation in blood circulated for 2 hours in the isolated circuit.

human prothrombin = human prothrombin (Homo sapiens, UniProt P00734); settings: read-out: apparent Kd; cited from earlier work

T1 sequence (P00740 227-461 limits assumed): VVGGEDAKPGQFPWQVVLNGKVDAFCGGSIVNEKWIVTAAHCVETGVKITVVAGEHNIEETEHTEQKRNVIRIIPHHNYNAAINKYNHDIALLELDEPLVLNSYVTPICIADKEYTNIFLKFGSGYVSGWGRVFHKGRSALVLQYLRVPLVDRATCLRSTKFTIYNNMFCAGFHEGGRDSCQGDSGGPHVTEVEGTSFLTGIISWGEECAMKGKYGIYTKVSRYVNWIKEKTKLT
T1 sequence (P00740 47-191 partner limits assumed): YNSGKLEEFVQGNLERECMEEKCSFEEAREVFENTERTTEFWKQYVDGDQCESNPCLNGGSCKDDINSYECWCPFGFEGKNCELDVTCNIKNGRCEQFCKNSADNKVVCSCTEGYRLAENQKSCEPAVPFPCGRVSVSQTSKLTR

Substance	FIXa activity inhibited in vivo (FIXa)	anticoagulation during CPB (in words) [1]	clot formation (in words) [2]	anticoagulation in CPB model (in words) [3]	clot formation in isolated oxygenator circuit (in words) (whole blood)	time of clot formation after circulation was started (whole blood)	MA ([2]; 1.0 micromolar, buffer 69.7 mm) [mm]	R, lag time ([2]; 1.0 micromolar, buffer 4.4 minutes) [min]	α ([2]; 1.0 micromolar, buffer about 55 degrees) [degrees]	Kd (human prothrombin) [nM]
9.3T: FIXa aptamer, 2'-fluoropyrimidine modified RNA, SEQ ID NO: 1 (AUGGGGACUAUACCGCGUAAUGCUGCCUCCCCAU; 2'-fluoro at CU, RNA at AG, backbone not given here) [Aptamer 9.3T]	greater than 99%	failed to effect satisfactory anticoagulation	none of those aptamers prevented clot formation	sufficiently anticoagulated blood	failed to prevent clot formation	approximately 30 minutes				
11F7T: FXa aptamer, 2'-fluoropyrimidine modified RNA, SEQ ID NO: 2 (GAGAGCCCCAGCGAGAUAAUACUUGGCCCCGCUCUU; 2'-fluoro at CU, RNA at AG, backbone not given here) [Aptamer 11F7T]			did not prevent the ultimate development of clot				59.5	17.8	24	
R9D-14T: prothrombin/thrombin aptamer, 58-base truncation of RNA9D-14, SEQ ID NO: 3 (GGCGGTCGATCACACAGTTCAAACGTAATAAGCCAATGTACGAGGCAGACGACTCGCC; 2'-fluoro at CT, RNA at AG, backbone and T or U not given here) [Aptamer R9D-14T]										10
